Literature values in patent US6642219B1, “Progestogen-antiprogestogen regimens” (Akzo Nobel N.V., priority 1997, dated 2003).

Experiments:
[1] = tested on: progestogenic activity
[2] = biological target: T1, progesterone receptor (Homo sapiens, UniProt P06401)
T1 sequence (P06401 1-933): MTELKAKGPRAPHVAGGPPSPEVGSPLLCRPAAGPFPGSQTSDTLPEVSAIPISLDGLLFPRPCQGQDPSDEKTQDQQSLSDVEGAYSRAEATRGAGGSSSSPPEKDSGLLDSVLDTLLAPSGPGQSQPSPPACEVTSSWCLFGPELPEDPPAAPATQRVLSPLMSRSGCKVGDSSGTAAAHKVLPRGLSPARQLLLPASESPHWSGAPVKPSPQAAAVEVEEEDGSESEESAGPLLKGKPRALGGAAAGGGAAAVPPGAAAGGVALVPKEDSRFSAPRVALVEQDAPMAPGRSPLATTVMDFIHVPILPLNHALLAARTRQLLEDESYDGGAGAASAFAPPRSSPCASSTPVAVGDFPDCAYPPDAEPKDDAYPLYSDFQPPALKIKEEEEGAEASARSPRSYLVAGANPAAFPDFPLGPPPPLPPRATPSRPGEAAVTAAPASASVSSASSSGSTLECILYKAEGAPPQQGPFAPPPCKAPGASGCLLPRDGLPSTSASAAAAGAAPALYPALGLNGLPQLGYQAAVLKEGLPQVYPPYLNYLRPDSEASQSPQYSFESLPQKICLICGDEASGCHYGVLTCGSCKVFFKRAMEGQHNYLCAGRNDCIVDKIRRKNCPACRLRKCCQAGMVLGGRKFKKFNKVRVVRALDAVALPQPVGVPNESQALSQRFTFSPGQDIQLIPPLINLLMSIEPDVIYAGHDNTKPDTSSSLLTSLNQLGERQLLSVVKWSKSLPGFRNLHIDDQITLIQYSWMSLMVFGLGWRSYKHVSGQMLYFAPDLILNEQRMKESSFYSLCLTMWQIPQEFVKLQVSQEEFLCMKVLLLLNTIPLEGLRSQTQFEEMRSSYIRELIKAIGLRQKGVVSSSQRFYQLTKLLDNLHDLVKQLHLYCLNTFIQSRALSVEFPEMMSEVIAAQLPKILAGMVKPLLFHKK

[3] = in vivo
[4] = based on practically applied doses

C#C[C@]1(O)CC[C@H]2[C@@H]3CCC4=CC(=O)CC[C@@H]4[C@H]3C(=C)C[C@@]21CC [3-keto-desogestrel]
progestogenic activity, compared among each other [1, 4]: relatively equipotent

C#C[C@]1(O)C=C[C@H]2[C@@H]3CCC4=CC(=O)CC[C@@H]4[C@H]3CC[C@@]21CC [Gestodene]
progestogenic potency relative to levonorgestrel, desogestrel and 3-keto-desogestrel [1, 4]: approximately 1.5 times

C#CC1(O)CC[C@H]2[C@@H]3CCC4=CC(=O)CC[C@@H]4[C@H]3CC[C@@]21CC (stereo partly drawn) [Norgestrel]
progestogenic potency relative to levonorgestrel [1]: about one-half

C[C@@H]1C[C@@H]2C(=C3CCC(=O)C=C31)[C@@H](c1ccc(N(C)C)cc1)C[C@@]1(C)[C@H]2CC[C@@]12CCCO2 [Org 31710, (6α,11β,17β)-11-(4-dimethylaminophenyl)-6-methyl-4′,5′-dihydrospiro-[estra-4,9-diene-17,2′-(3′H)-furan]-3-one]
anti-progestogen potency compared with RU 486 [2]: somewhat more potent
half-life [3]: 50 h

CC(=O)c1ccc(C2CC3(C)C(CCC34OCC=C4C)C3CCC4=CC(=O)CCC4=C23)cc1 (stereo not drawn) [Org 33628, (11β,17α)-11-(4-acetylphenyl)-17,23-epoxy-19,24-dinorchola-4,9,20-trien-3-one]
anti-progestogen potency compared with RU 486 [2]: somewhat more potent
half-life [3]: approximately 15 hours

CC#C[C@]1(O)CC[C@H]2[C@@H]3CCC4=CC(=O)CCC4=C3[C@@H](c3ccc(N(C)C)cc3)C[C@@]21C [RU 486, (11β,17β)-11-[4-(demethylamino)-phenyl]-17-hydroxy-17-(1-propynyl)esta-4,9diene-3-one]
half-life [3]: ~20 h

C#C[C@]1(O)CC[C@H]2[C@@H]3CCC4=CCCC[C@@H]4[C@H]3C(=C)C[C@@]21CC [desogestrel, 13-ethyl-11-methylene-18,19-di-nor-17α-pregn-4en-20-yn-17-ol]
progestogenic activity, compared among each other [1, 4]: relatively equipotent
